Results reported in ChEMBL document CHEMBL1143462, “The discovery of fluoropyridine-based inhibitors of the Factor VIIa/TF complex” (Bioorg Med Chem Lett, 2005).
pIC50: −log10 of the molar value.

Experiments:
[1] = In vitro inhibitory activity against prolonging prothrombin time as anticoagulant effect on extrinsic coagulation pathway; assay type: functional; settings: Homo sapiens
[2] = molecular target: Coagulation factor VII/tissue factor (Homo sapiens, UniProt P08709); assay: Inhibitory concentration against human coagulation factor VIIa/tissue factor cleavage of fluorogenic substrate SN17c at 37 degree C for 15 minutes; assay type: protein-complex assay
[3] = molecular target: Coagulation factor X (Homo sapiens, UniProt P00742); assay: Inhibitory concentration against human coagulation factor Xa
Coagulation factor X, sequence (P00742 41-179 limits assumed): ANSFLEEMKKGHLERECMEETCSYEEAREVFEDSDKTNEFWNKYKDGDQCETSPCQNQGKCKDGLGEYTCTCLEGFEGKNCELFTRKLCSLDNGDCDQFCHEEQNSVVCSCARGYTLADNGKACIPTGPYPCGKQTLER
Coagulation factor X, sequence (P00742 235-488 limits assumed): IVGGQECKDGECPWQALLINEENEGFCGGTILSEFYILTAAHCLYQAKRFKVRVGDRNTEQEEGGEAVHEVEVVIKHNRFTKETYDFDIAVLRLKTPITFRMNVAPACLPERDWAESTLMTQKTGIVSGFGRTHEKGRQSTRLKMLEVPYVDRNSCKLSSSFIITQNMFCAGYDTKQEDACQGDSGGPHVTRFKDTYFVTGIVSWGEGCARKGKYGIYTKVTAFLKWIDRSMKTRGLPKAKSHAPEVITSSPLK

Coagulation factor VII/tissue factor, sequence (P08709 61-212 limits assumed): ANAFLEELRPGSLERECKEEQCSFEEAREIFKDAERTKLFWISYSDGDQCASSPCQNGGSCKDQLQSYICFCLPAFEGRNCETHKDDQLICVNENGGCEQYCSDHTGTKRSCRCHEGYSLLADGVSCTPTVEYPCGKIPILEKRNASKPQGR
Coagulation factor VII/tissue factor, sequence (P08709 213-466 limits assumed): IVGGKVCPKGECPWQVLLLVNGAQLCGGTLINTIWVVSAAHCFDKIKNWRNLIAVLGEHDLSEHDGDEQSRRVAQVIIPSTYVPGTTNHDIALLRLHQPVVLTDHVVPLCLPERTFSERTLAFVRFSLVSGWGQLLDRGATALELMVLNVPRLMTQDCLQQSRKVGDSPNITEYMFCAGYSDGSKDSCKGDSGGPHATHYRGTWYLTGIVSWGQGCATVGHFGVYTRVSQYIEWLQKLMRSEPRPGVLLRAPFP
Coagulation factor VII/tissue factor, sequence (P13726 33-295 partner limits assumed): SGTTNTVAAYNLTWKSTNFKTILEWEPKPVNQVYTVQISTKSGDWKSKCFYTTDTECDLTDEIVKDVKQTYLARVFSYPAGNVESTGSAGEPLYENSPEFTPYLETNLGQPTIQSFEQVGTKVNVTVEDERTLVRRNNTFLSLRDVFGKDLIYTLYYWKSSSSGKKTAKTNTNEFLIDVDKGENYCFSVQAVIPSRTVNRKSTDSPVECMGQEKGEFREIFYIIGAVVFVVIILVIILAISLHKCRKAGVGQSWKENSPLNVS

| SMILES | pIC50 [2] | pIC50 [3] | Concentration prolonging prothrombin time [1] |
| --- | --- | --- | --- |
| CC(CCc1ccccc1)Nc1c(F)c(Oc2cccc(C(=N)N)c2)nc(Oc2ccc(C(=O)NC(C)(C)CO)cc2C(=O)O)c1F (stereo unspecified) | 7.80 | 4.23 | 11 µM |
| CC(CCc1ccccc1)Nc1c(F)c(Oc2cccc(C(=N)N)c2)nc(Oc2ccc(C(=O)NCCCCO)cc2C(=O)O)c1F (stereo unspecified) | 7.17 | 4.70 | 16 µM |
| CC(C)CNC(=O)c1ccc(Oc2nc(Oc3cccc(C(=N)N)c3)c(F)c(NC(C)CCc3ccccc3)c2F)c(C(=O)O)c1 (stereo unspecified) | 8.00 | 5.02 | 22 µM |
| CCOc1ccc(Oc2nc(Oc3cccc(C(=N)N)c3)c(F)c(NC(C)CCc3ccccc3)c2F)c(C(=O)O)c1 (stereo unspecified) | 7.54 | 4.77 | 94 µM |
| CC(CCc1ccccc1)Nc1c(F)c(Oc2cccc(C(=N)N)c2)nc(Oc2ccc(N(C)C)cc2C(=O)O)c1F (stereo in doubt; 28) [listing 1 of 2 here] | – | – | 16 µM |
| CC(CCc1ccccc1)Nc1c(F)c(Oc2cccc(C(=N)N)c2)nc(Oc2ccc(C(=O)NCc3cccc(O)c3)cc2C(=O)O)c1F (stereo unspecified) | 7.41 | 5.39 | 49 µM |
| CC(CCc1ccccc1)Nc1c(F)c(Oc2cccc(C(=N)N)c2)nc(Oc2ccc(C(=O)NC(CO)CO)cc2C(=O)O)c1F (stereo unspecified) | 7.34 | 4.89 | 9 µM |
| CC(CCc1ccccc1)Nc1c(F)c(Oc2cccc(C(=N)N)c2)nc(Oc2ccc(N(C)C)cc2C(=O)O)c1F (stereo in doubt; 19) [listing 1 of 2 here] | – | – | 49 µM |
| CCCOc1ccc(Oc2nc(Oc3cccc(C(=N)N)c3)c(F)c(NC(C)CCc3ccccc3)c2F)c(C(=O)O)c1 (stereo unspecified) | 7.72 | 4.59 | 95 µM |
| Cc1c(F)c(Oc2cccc(C(=N)N)c2)nc(Oc2ccc(N(C)C)cc2C(=O)O)c1F | 6.72 | – | – |
| Cc1c(F)c(Oc2cccc(C(=N)N)c2)nc(Oc2ccccc2C(=O)O)c1F | 5.92 | > 5.00 | – |
| CC(CCc1ccccc1)Nc1c(F)c(Oc2cccc(C(=N)N)c2)nc(Oc2ccc(O)cc2C(=O)O)c1F (stereo unspecified) | 6.25 | 4.96 | – |
| CC(CCc1ccccc1)Nc1c(F)c(Oc2cccc(C(=N)N)c2)nc(Oc2ccc(OC(C)C)cc2C(=O)O)c1F (stereo unspecified) | 7.77 | 4.92 | 52 µM |
| COc1ccc(Oc2nc(Oc3cccc(C(=N)N)c3)c(F)c(NC(C)CCc3ccccc3)c2F)c(C(=O)O)c1 (stereo unspecified) | 7.41 | 4.96 | – |
| CC(CCc1ccccc1)Nc1c(F)c(Oc2cccc(C(=N)N)c2)nc(Oc2ccc(C(=O)N[C@H](O)C(=O)O)cc2C(=O)O)c1F (stereo partly specified) | 6.14 | – | – |
| CC(CCc1ccccc1)Nc1c(F)c(Oc2cccc(C(=N)N)c2)nc(Oc2ccc(C(=O)NCc3ccc(O)c(O)c3)cc2C(=O)O)c1F (stereo unspecified) | 6.85 | – | – |
| CC(CCc1ccccc1)Nc1c(F)c(Oc2cccc(C(=N)N)c2)nc(Oc2ccc(N)cc2C(=O)O)c1F (stereo unspecified) | 7.10 | 4.96 | – |
| CC(CCc1ccccc1)Nc1c(F)c(Oc2cccc(C(=N)N)c2)nc(Oc2ccc(C(C)C)cc2C(=O)O)c1F (stereo unspecified) | 7.82 | 5.32 | 28 µM |
| CC(CCc1ccccc1)Nc1c(F)c(Oc2cccc(C(=N)N)c2)nc(Oc2ccc(C(=O)NC(C)C(C)(C)C)cc2C(=O)O)c1F (stereo unspecified) | 7.85 | 5.37 | 15 µM |
| CC(CCc1ccccc1)Nc1c(F)c(Oc2cccc(C(=N)N)c2)nc(Oc2ccc(C(=O)O)cc2C(=O)O)c1F (stereo unspecified) | 6.70 | – | – |

Now from value to compound, other results behind:

| pIC50 [2] | pIC50 [3] | SMILES | Concentration prolonging prothrombin time [1] |
| --- | --- | --- | --- |
| 7.80 | 5.02 | CCN(CC)c1ccc(Oc2nc(Oc3cccc(C(=N)N)c3)c(F)c(NC(C)CCc3ccccc3)c2F)c(C(=O)O)c1 (stereo unspecified) | 83 µM |
| 7.44 | – | CCCCN(CCCC)c1ccc(Oc2nc(Oc3cccc(C(=N)N)c3)c(F)c(NC(C)CCc3ccccc3)c2F)c(C(=O)O)c1 (stereo unspecified) | – |
| 7.77 | 5.10 | CNc1ccc(Oc2nc(Oc3cccc(C(=N)N)c3)c(F)c(NC(C)CCc3ccccc3)c2F)c(C(=O)O)c1 (stereo unspecified) | 41 µM |
| 7.82 | 5.35 | CC(CCc1ccccc1)Nc1c(F)c(Oc2cccc(C(=N)N)c2)nc(Oc2ccc(N(C)C)cc2C(=O)O)c1F (stereo in doubt; 28) [listing 2 of 2 here] | – |
| 7.15 | – | CC(CCc1ccccc1)Nc1c(F)c(Oc2cccc(C(=N)N)c2)nc(Oc2ccc(C(=O)NCCCO)cc2C(=O)O)c1F (stereo unspecified) | 12 µM |
| 7.70 | 4.54 | Cc1ccc(Oc2nc(Oc3cccc(C(=N)N)c3)c(F)c(NC(C)CCc3ccccc3)c2F)c(C(=O)O)c1 (stereo unspecified) | – |
| 7.64 | 4.77 | CC(CCc1ccccc1)Nc1c(F)c(Oc2cccc(C(=N)N)c2)nc(Oc2ccc(-c3ccccc3)cc2C(=O)O)c1F (stereo unspecified) | 112 µM |
| 8.10 | 5.02 | COc1cccc(CNC(=O)c2ccc(Oc3nc(Oc4cccc(C(=N)N)c4)c(F)c(NC(C)CCc4ccccc4)c3F)c(C(=O)O)c2)c1 (stereo unspecified) | 53 µM |
| 7.35 | 4.29 | C[C@H](CCc1ccccc1)Nc1c(F)c(Oc2cccc(C(=N)N)c2)nc(Oc2ccccc2C(=O)O)c1F | 29 µM |
| 7.64 | 5.24 | CCC(CO)NC(=O)c1ccc(Oc2nc(Oc3cccc(C(=N)N)c3)c(F)c(NC(C)CCc3ccccc3)c2F)c(C(=O)O)c1 (stereo unspecified) | 10 µM |
| 7.89 | 5.17 | CC(CCc1ccccc1)Nc1c(F)c(Oc2cccc(C(=N)N)c2)nc(Oc2ccc(N(C)C)cc2C(=O)O)c1F (stereo in doubt; 19) [listing 2 of 2 here] | – |
| 7.68 | 5.48 | CC(CCc1ccccc1)Nc1c(F)c(Oc2cccc(C(=N)N)c2)nc(Oc2ccc(C(C)(C)C)cc2C(=O)O)c1F (stereo unspecified) | 24 µM |
| – | 4.26 | CC(CCc1ccccc1)Nc1c(F)c(Oc2cccc(C(=N)N)c2)nc(Oc2ccccc2C(=O)O)c1F (stereo unspecified) | 35 µM |
